{"source": "patent US20220325242A1", "about": "“IDH2 INHIBITION FOR PRODUCING T-CELLS AND B-CELLS WITH A MEMORY PHENOTYPE” (Universite de Lausanne, priority 2019, published 2022)", "key": {"[1]": {"test_system": "Sell (CD62L) mRNA in OT1 cells", "experiment": "Sell (CD62L) gene expression by quantitative real time RT-PCR in OT1 cells", "type": "cell-based, mouse", "procedure": "Example 2. In vitro culture of splenocytes comprising CD8+ T-cells. OT1 splenocytes (as described in Example 1) were cultured for 3 days at a concentration of 10^6 cells per mL in RPMI medium (Gibco 61870-01) supplemented with 10% FCS, (Gibco 10270-106), 1% Penicillin/Streptomycin (P/S; Gibco 15070-063), 0.1% 13-mercaptoethanol, 1% HEPES (Gibco 15630-080), 1× Non-essential amino acids (Gibco 11140-035), 1% L-glutamine (Gibco 25030-081), 1 mM Sodium Pyruvate (Gibco 11360-039), 100 U/m1 hIL-2 (Glaxo-IMB) and 1 μg/ml ovalbumin N4 peptide (SIINFEKL). To evaluate the effects of IDH2 inhibition on T-cell differentiation, 5 μM of a small molecule IDH2 inhibitor (AG221 or AGI6780) or a DMSO solvent control was added during this 3-day culture period. […] At day 3 and day 7, the activation and differentiation state of CD8+ T-cells was determined by gene expression analysis, flow cytometry and extracellular metabolic flux analyses (see Example 3).\na) Gene expression analysis by quantitative real time RT-PCR RNA was isolated with the RNeasy mini kit (Qiagen) and cDNA was generated by reverse transcription (Applied Biosystems). […] Gene expression was calculated relative to […] (FW primer: 5′ aga ctg ata cat acg cct gca g 3′, RV primer: 5′ gca ggt tca aat gaa tct tca g 3′)."}, "[2]": {"test_system": "transferred CD8+ CD45.1+ OT1 T-cells", "experiment": "Phenotype of adoptively transferred OT1 CD8+ T-cells in blood of B16-OVA tumor-bearing mice", "type": "in vivo, mouse", "description": "Antibody panel to determine the frequency and differentiation and activation state of adoptively transferred T-cells in the blood (see Example 6): CD8-PE-texas-Red, CD45.1-Pacific blue, CD45.2-FITC, CD127-PE, KLRG1-PE-Cy7, CD62L-APC, CD44-APC-Cy7, and CD27-PerCP-Cy5.5.\n(§1) Example 5. In vivo tumor model to characterize the phenotype and efficacy of cultured CD8+ T-cells upon adoptive cell transfer. An in vivo tumor model was used to determine the efficacy of in vitro cultured CD8+ T-cells treated with an IDH2 inhibitor in eliminating cancer cells (FIG. 10). B16-OVA melanoma cells (see Example 1) were cultured in DMEM (GIBCO) with 10% FCS and 1% P/S before their subcutaneous injection into the mouse flank. Each mouse received 100′000 cells in a volume of 200 μl of PBS. 6 days after B16-OVA cell injection, tumors were measured, mice were randomized and lymphodepleted by irradiation (5 Gray). 7 days after B16-Ova cell injection, mice were adoptively transferred with activated CD45.1^+ OT-1 splenocytes. The CD45.1^+ OT-1 splenocytes had been cultured in vitro for 7 days as described in Example 2, wherein the IDH2 inhibitor was AG221, collected and purified on a Ficoll gradient to separate dead and live splenocytes. Live splenocytes, almost exclusively consisting of CD8+ T-cells (about 98%), were counted with Trypan blue stain 0.4%. 100′000 live splenocytes were transferred into CD45.2^+ host mice by tail vein injection.\n(§2) Following the adoptive cell transfer (ACT), mice received a vaccination of CpG (50 μg/mouse) and N4 Ova peptide (10 μg/mouse) diluted in PBS to obtain a total volume of 100 μl/mouse, injected subcutaneously at the tail base to further stimulate the transferred cells. An additional no-ACT control group received only a PBS injection (neither cells, CpG nor peptide). Tumors were measured every 2 days with a digital caliper and the tumor volume was calculated according to the formula: V=π×[d2×D]/6, wherein d is the smallest tumor axis and D is the largest tumor axis.\nExample 6. Maintenance of the CD8+ T-cell memory phenotype in vivo. Blood samples were collected at day 14 and day 18 post tumor engraftment (see Example 5). […] Transferred CD8+ T-cells were CD8^+ and CD45.1^+. Among those, MPECs were KLRG1^low and CD127^+, SLECs were KLRG1^high and CD127^−, and TCM were CD44^+ and CD62L^+."}, "OT1 CD8+ T-cells": {"test_system": "OT1 CD8+ T-cells", "experiment": "Flow cytometry of surface activation and memory markers on in vitro cultured OT1 CD8+ T-cells", "type": "cell-based, mouse", "conditions": "5 μM inhibitor day 0-3, flow cytometry on day 3 and 7", "procedure": "Example 2. In vitro culture of splenocytes comprising CD8+ T-cells. OT1 splenocytes (as described in Example 1) were cultured for 3 days at a concentration of 10^6 cells per mL in RPMI medium (Gibco 61870-01) supplemented with 10% FCS, (Gibco 10270-106), 1% Penicillin/Streptomycin (P/S; Gibco 15070-063), 0.1% 13-mercaptoethanol, 1% HEPES (Gibco 15630-080), 1× Non-essential amino acids (Gibco 11140-035), 1% L-glutamine (Gibco 25030-081), 1 mM Sodium Pyruvate (Gibco 11360-039), 100 U/m1 hIL-2 (Glaxo-IMB) and 1 μg/ml ovalbumin N4 peptide (SIINFEKL). To evaluate the effects of IDH2 inhibition on T-cell differentiation, 5 μM of a small molecule IDH2 inhibitor (AG221 or AGI6780) or a DMSO solvent control was added during this 3-day culture period. At day 3, a fraction of the splenocytes was collected and the remaining cells were cultured for 4 additional days with 100 U/ml hIL-2 and 10 ng/ml hIL-7 (Peprotech 200-07) supplementation after washing out the inhibitors and the ovalbumine N4 peptide (FIG. 1). At day 3 and day 7, the activation and differentiation state of CD8+ T-cells was determined by gene expression analysis, flow cytometry and extracellular metabolic flux analyses (see Example 3).\nCells were incubated in a live/dead stain (Fixable aqua dead cell stain kit, Invitrogen) followed by an incubation with different antibody panels.\nAntibody panel to determine the differentiation and activation state of in vitro cultured T-cells (see Examples 2 and 4): anti-CD8-PE-texas-Red, anti-CD62L-FITC, anti-CD127-PE, anti-CD27-PerCP-Cy5.5, anti-CD71-PE-Cy7, anti-CD44-APC-Cy7, anti-CD98-APC, anti-CD25-Pacific blue (BD Pharmingen and eBioscience, San Diego, Calif., USA). All those antigens are surface molecules. Cells were gated on living single CD8+ cells before analysis of activation and memory marker expression. For the unstained control, cells were stained with the live/dead stain and anti-CD8-PE-texas-Red.\nCells were acquired on LSR-II flow cytometers from the flow cytometry facility of UNIL and data were analyzed with FlowJo™ 10 software. Antibodies were purchased from BD Phamingen (San Diego, Calif., USA), eBioscience (San Diego, Calif., USA, and Biolegend (San Diego, Calif., USA)."}, "B16-OVA melanoma": {"test_system": "B16-OVA melanoma", "experiment": "Tumor growth of B16-OVA tumors after adoptive transfer of inhibitor-treated OT1 T-cells", "type": "in vivo, mouse", "conditions": "mice adoptively transferred with T-cells treated in vitro", "procedure": "as §1, with “The CD45.1^+ OT-1 splenocytes had been cultured in vitro for 7 days as described in Example 2, wherein the IDH2 inhibitor was AG221, collected and purified on a Ficoll gradient to separate dead and live splenocytes.” left out, “100′000 live splenocytes were transferred into CD45.2^+ host mice by tail vein injection.” left out\nas §2, with “An additional no-ACT control group received only a PBS injection (neither cells, CpG nor peptide).” left out"}, "[3]": {"test_system": "accessible chromatin regions in OT1 T-cells", "experiment": "ATAC-seq of OT1 T-cells", "type": "cell-based, mouse", "conditions": "day 7, 5 μM day 0-3, compared to DMSO-treated T-cells", "procedure": "Methods: OT1 splenocytes were activated and cultured with 5 μM AG221 or DMSO as described in Example 2. After 3 days, the cells were washed and the IDH2 inhibitor was washed out as well. The cells were then cultured for an additional 4 days in the absence of AG221. At day 7, the cells were collected and washed once with PBS. 50′000 cells were collected for ATAC-seq while the remaining cell pellet was lysed in extraction buffer (20 mM Tris HCl, 150 mM NaCl, 1% Triton X-100, 10% glycerol, 5 mM EDTA) supplemented with Complete Mini protease inhibitor (Roche) for wester blotting.\nFor ATAC-seq cells were transposed with the Illumina Tagment DNA Enzyme and Buffer Small Kit according to the protocol described by Buenrostro et al. (Curr Protoc Mol Biol. 2015 Jan 5;109:21.29.1-21.29.9.). Fragments were sequenced on an Illumina NextSeq 500 instrument."}, "[4]": {"conditions": "day 14, compared to DMSO control"}}}
{"smiles": "CC(C)(O)CNc1nc(Nc2ccnc(C(F)(F)F)c2)nc(-c2cccc(C(F)(F)F)n2)n1", "note": "[AG221, 2-methyl-1-[[4-[6-(trifluoromethyl)pyridin-2-yl]-6-[[2-(trifluoromethyl)pyridin-4-yl]amino]-1,3,5-triazin-2-yl]amino]propan-2-ol]", "values": [{"measurement": "Sell (CD62L) mRNA expression increase", "setting": "[1]; day 3, 5 μM, versus DMSO", "result": 3, "unit": "fold"}, {"measurement": "Sell (CD62L) mRNA expression increase", "setting": "[1]; day 7, 5 μM day 0-3, versus DMSO", "result": 7, "unit": "fold"}, {"measurement": "frequency of transferred T-cells", "setting": "[2]; day 14 (day 7 post ACT), cells treated in vitro before ACT, versus DMSO", "result": "significantly higher"}, {"measurement": "proportion of central memory T cells (TCM) within transferred CD8+ T-cells", "setting": "[2]; [4]", "result": "significantly higher"}, {"measurement": "proportion of memory precursor effector cells (MPECs) within transferred CD8+ T-cells", "setting": "[2]; [4]", "result": "significantly higher"}, {"measurement": "proportion of short-lived effector cells (SLECs) within transferred CD8+ T-cells", "setting": "[2]; [4]", "result": "significantly lower"}, {"measurement": "CD62L surface expression compared to DMSO", "setting": "OT1 CD8+ T-cells", "result": "increased"}, {"measurement": "other surface markers (CD25, CD44, CD71, CD98, CD27, CD127) compared to DMSO", "setting": "OT1 CD8+ T-cells", "result": "generally unchanged"}, {"measurement": "tumor burden, in particular tumor growth", "setting": "B16-OVA melanoma", "result": "significantly reduced"}, {"measurement": "more accessible regions in the DNA (ATAC-seq)", "setting": "[3]", "result": 1633}]}
